The values that follow come from patent publication US20240360082A1, “SUBSTITUTED PYRIDONE COMPOUNDS USEFUL TO TREAT ORTH[…]” (priority 2021, published 2024).

For orientation: IC50 means the concentration that inhibits the measured activity by half.

For the assay, the target named is influenza A virus minigenome (PB2, PB1, PA, NP proteins) (UniProt P04665). In kind it is cell-based. The conditions noted are these: read-out: RNP_ Hubei B IC50.
Sequence of influenza A virus minigenome (PB2, PB1, PA, NP proteins) (P04665 whole entry): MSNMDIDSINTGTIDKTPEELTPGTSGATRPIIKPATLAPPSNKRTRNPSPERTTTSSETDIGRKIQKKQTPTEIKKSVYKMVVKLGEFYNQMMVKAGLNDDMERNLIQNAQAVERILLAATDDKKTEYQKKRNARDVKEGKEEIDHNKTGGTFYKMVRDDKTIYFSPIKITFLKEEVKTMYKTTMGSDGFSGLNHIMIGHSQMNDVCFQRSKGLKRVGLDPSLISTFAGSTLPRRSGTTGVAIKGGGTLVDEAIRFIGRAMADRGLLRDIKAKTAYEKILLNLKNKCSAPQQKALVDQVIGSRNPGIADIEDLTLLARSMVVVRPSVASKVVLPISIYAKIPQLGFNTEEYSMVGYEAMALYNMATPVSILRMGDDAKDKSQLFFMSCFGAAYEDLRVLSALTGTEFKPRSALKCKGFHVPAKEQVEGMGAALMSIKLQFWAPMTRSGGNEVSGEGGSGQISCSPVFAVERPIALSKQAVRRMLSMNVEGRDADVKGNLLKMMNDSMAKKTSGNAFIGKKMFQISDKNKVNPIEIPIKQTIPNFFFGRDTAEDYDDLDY
As for `COC[C@@]1(C)COC[C@@H](COc2ccc(-c3cc(C(N)=O)c(=O)[nH]c3C(F)(F)F)cc2)O1` [Example 405, 5-(4-(((2S,6S)-6-(methoxymethyl)-6-methyl-1,4-dioxan-2-yl)methoxy)phenyl)-2-oxo-6-(trifluoromethyl)-1,2-dihydropyridine-3-carboxamide], the IC50 was in the range of 5 to 10 µM.

For `COC[C@]1(C)COC[C@@H](COc2ccc(-c3cc(C(N)=O)c(=O)[nH]c3C(F)(F)F)cc2)O1` [Example 406, 5-(4-(((2S,6R)-6-(methoxymethyl)-6-methyl-1,4-dioxan-2-yl)methoxy)phenyl)-2-oxo-6-(trifluoromethyl)-1,2-dihydropyridine-3-carboxamide], the IC50 is 5 to 10 µM.

On to `COC[C@]1(C)COC[C@H](COc2ccc(-c3cc(C(N)=O)c(=O)[nH]c3C(F)(F)F)cc2)O1` [Example 407, 5-(4-(((2R,6R)-6-(methoxymethyl)-6-methyl-1,4-dioxan-2-yl)methoxy)phenyl)-2-oxo-6-(trifluoromethyl)-1,2-dihydropyridine-3-carboxamide], for which the IC50 fell in the range of 5 to 10 µM.

With `COC[C@@]1(C)COC[C@H](COc2ccc(-c3cc(C(N)=O)c(=O)[nH]c3C(F)(F)F)cc2)O1` [Example 408, 5-(4-(((2R,6S)-6-(methoxymethyl)-6-methyl-1,4-dioxan-2-yl)methoxy)phenyl)-2-oxo-6-(trifluoromethyl)-1,2-dihydropyridine-3-carboxamide], the IC50 was 5 to 10 µM.

Consider `CN(C)C(=O)[C@@]1(C)COC[C@@H](COc2ccc(-c3cc(C(N)=O)c(=O)[nH]c3C(F)(F)F)cc2)O1` [Example 409, 5-(4-(((2S,6R)-6-(dimethylcarbamoyl)-6-methyl-1,4-dioxan-2-yl)methoxy)phenyl)-2-oxo-6-(trifluoromethyl)-1,2-dihydropyridine-3-carboxamide], for which the IC50 lay in the range of 5 to 10 µM.

For `[2H]C([2H])([2H])OC[C@@]1(C)COC[C@@H](COc2ccc(-c3cc(C(N)=O)c(=O)[nH]c3C(F)(F)F)cc2)O1` [Example 410, 5-(4-(((2S,6S)-6-((methoxy-d3)methyl)-6-methyl-1,4-dioxan-2-yl)methoxy)phenyl)-2-oxo-6-(trifluoromethyl)-1,2-dihydropyridine-3-carboxamide], the IC50 fell in the range of 5 to 10 µM.

Take `C[C@]1(CC#N)COC[C@@H](COc2ccc(-c3cc(C(N)=O)c(=O)[nH]c3C(F)(F)F)cc2)O1` [Example 411, 5-(4-(((2S,6S)-6-(cyanomethyl)-6-methyl-1,4-dioxan-2-yl)methoxy)phenyl)-2-oxo-6-(trifluoromethyl)-1,2-dihydropyridine-3-carboxamide]: the 50% inhibitory concentration (IC50) lay in the range of 5 to 10 µM.

As to `C[C@]1(CS(C)(=O)=O)COC[C@@H](COc2ccc(-c3cc(C(N)=O)c(=O)[nH]c3C(F)(F)F)cc2)O1` [Example 412, 5-(4-(((2S,6R)-6-methyl-6-((methylsulfonyl)methyl)-1,4-dioxan-2-yl)methoxy)phenyl)-2-oxo-6-(trifluoromethyl)-1,2-dihydropyridine-3-carboxamide], the 50% inhibitory concentration (IC50) fell in the range of 5 to 10 µM.

In the case of `C[C@]1(CS(=O)(=O)C2CC2)COC[C@@H](COc2ccc(-c3cc(C(N)=O)c(=O)[nH]c3C(F)(F)F)cc2)O1` [Example 413, 5-(4-(((2S,6R)-6-((cyclopropylsulfonyl)methyl)-6-methyl-1,4-dioxan-2-yl)methoxy)phenyl)-2-oxo-6-(trifluoromethyl)-1,2-dihydropyridine-3-carboxamide], the IC50 lay within 5 to 10 µM.

With `COCC1(COC)COC[C@@H](COc2ccc(-c3cc(C(N)=O)c(=O)[nH]c3C(F)(F)F)cc2)O1` [Example 414, (S)-5-(4-((6,6-bis(methoxymethyl)-1,4-dioxan-2-yl)methoxy)phenyl)-2-oxo-6-(trifluoromethyl)-1,2-dihydropyridine-3-carboxamide], the IC50 was in the range of 5 to 10 µM.

With `NC(=O)c1cc(-c2ccc(OC[C@@H]3COCC4(COC4)O3)cc2)c(C(F)(F)F)[nH]c1=O` [Example 415, (S)-5-(4-((2,5,8-trioxaspiro[3.5]nonan-6-yl)methoxy)phenyl)-2-oxo-6-(trifluoromethyl)-1,2-dihydropyridine-3-carboxamide], the IC50 lay in the range of 5 to 10 µM.

On to `NC(=O)c1cc(-c2ccc(OC[C@@H]3COCC4(COCCOC4)O3)cc2)c(C(F)(F)F)[nH]c1=O` [Example 416, (S)-5-(4-((1,4,8,11-tetraoxaspiro[5.6]dodecan-2-yl)methoxy)phenyl)-2-oxo-6-(trifluoromethyl)-1,2-dihydropyridine-3-carboxamide], for which the IC50 lay within 5 to 10 µM.

On to `COC[C@@]1(CF)COC[C@@H](COc2ccc(-c3cc(C(N)=O)c(=O)[nH]c3C(F)(F)F)cc2)O1` [Example 417, 5-(4-(((2S,6S)-6-(fluoromethyl)-6-(methoxymethyl)-1,4-dioxan-2-yl)methoxy)phenyl)-2-oxo-6-(trifluoromethyl)-1,2-dihydropyridine-3-carboxamide], for which the IC50 was in the range of 5 to 10 µM.

As for `COC[C@@]1(CCl)COC[C@@H](COc2ccc(-c3cc(C(N)=O)c(=O)[nH]c3C(F)(F)F)cc2)O1` [Example 418, 5-(4-(((2S,6S)-6-(chloromethyl)-6-(methoxymethyl)-1,4-dioxan-2-yl)methoxy)phenyl)-2-oxo-6-(trifluoromethyl)-1,2-dihydropyridine-3-carboxamide], the IC50 lay within 5 to 10 µM.

Consider `C[C@@]1(CF)COC[C@@H](COc2ccc(-c3cc(C(N)=O)c(=O)[nH]c3C(F)(F)F)cc2)O1` [Example 419, 5-(4-(((2S,6S)-6-(fluoromethyl)-6-methyl-1,4-dioxan-2-yl)methoxy)phenyl)-2-oxo-6-(trifluoromethyl)-1,2-dihydropyridine-3-carboxamide], for which the half-maximal inhibitory concentration (IC50) was in the range of 5 to 10 µM.

As to `C[C@]1(CF)COC[C@@H](COc2ccc(-c3cc(C(N)=O)c(=O)[nH]c3C(F)(F)F)cc2)O1` [Example 420, 5-(4-(((2S,6R)-6-(fluoromethyl)-6-methyl-1,4-dioxan-2-yl)methoxy)phenyl)-2-oxo-6-(trifluoromethyl)-1,2-dihydropyridine-3-carboxamide], the IC50 is 5 to 10 µM.

As to `C[C@@]1(CN2CC(F)C2)COC[C@@H](COc2ccc(-c3cc(C(N)=O)c(=O)[nH]c3C(F)(F)F)cc2)O1` [Example 421], the IC50 lay in the range of 5 to 10 µM.

`C[C@@]1(CN2CC(F)(F)C2)COC[C@@H](COc2ccc(-c3cc(C(N)=O)c(=O)[nH]c3C(F)(F)F)cc2)O1` [Example 422, 5-(4-(((2S,6R)-6-((3,3-difluoroazetidin-1-yl)methyl)-6-methyl-1,4-dioxan-2-yl)methoxy)phenyl)-2-oxo-6-(trifluoromethyl)-1,2-dihydropyridine-3-carboxamide]: the IC50 lay within 5 to 10 µM.

For the molecule `CN(C)C[C@@]1(C)COC[C@@H](COc2ccc(-c3cc(C(N)=O)c(=O)[nH]c3C(F)(F)F)cc2)O1` [Example 423, 5-(4-(((2S,6S)-6-((dimethylamino)methyl)-6-methyl-1,4-dioxan-2-yl)methoxy)phenyl)-2-oxo-6-(trifluoromethyl)-1,2-dihydropyridine-3-carboxamide], the IC50 fell in the range of 5 to 10 µM.

`CN(C)C[C@]1(C)COC[C@@H](COc2ccc(-c3cc(C(N)=O)c(=O)[nH]c3C(F)(F)F)cc2)O1` [Example 424, 5-(4-(((2S,6R)-6-((dimethylamino)methyl)-6-methyl-1,4-dioxan-2-yl)methoxy)phenyl)-2-oxo-6-(trifluoromethyl)-1,2-dihydropyridine-3-carboxamide]: the IC50 lay in the range of 5 to 10 µM.
